According to patent US20250270213A1, “PI3Ka INHIBITORS” (Synnovation Therapeutics, Inc., priority 2022, published 2025):

The compounds below were run on T47D (PIK3CA H1047R) cells (assay: pS473 AKT assay with 2.5% FBS, T47D cells). Details: Homo sapiens, pSer473 AKT, DMEM with 2.5% FBS, 2 h treatment, read-out: T47D_IC50.
Assay type: cell-based
Procedure, shortened: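 T47D (PIK3CA H1047R) cells were switched to DMEM with 2.5% FBS and exposed to compounds for 2 h. After paraformaldehyde fixation, pSer473 AKT was detected by in-cell ELISA (rabbit primary, HRP anti-rabbit secondary, chemiluminescence); IC50 values were fitted from the concentration series.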

| SMILES | IC50 [nM] |
| --- | --- |
| CCNC(=O)N1CCC(Cn2ncc3c4c(C(C)Nc5ccc(Cl)nc5-c5ccncc5F)cc(C)cc4c(=O)n(C)c32)CC1 (centres unmarked) [Compound 109, 4-((9-(1-((6-Chloro-3′-fluoro-[2,4′-bipyridin]-3-yl)amino)ethyl)-4,7-dimethyl-5-oxo-4,5-dihydro-3H-pyrazolo[3,4-c]isoquinolin-3-yl)methyl)-N-ethylpiperidine-1-carboxamide] | < 1000 |
| Cc1cc(C(C)Nc2ccc(Cl)nc2-c2ccncc2F)c2c(c1)c(=O)n(C)c1c2cnn1CC1CCN(CC(F)F)C1 (centres unmarked) [Compound 110, 9-(1-((6-Chloro-3′-fluoro-[2,4′-bipyridin]-3-yl)amino)ethyl)-3-((1-(2,2-difluoroethyl)pyrrolidin-3-yl)methyl)-4,7-dimethyl-3,4-dihydro-5H-pyrazolo[3,4-c]isoquinolin-5-one] | < 1000 |
| Cc1cc(C(C)Nc2ccc(Cl)nc2-c2ncn(C)n2)c2c(c1)c(=O)n(C)c1c(C(C)O)ncn21 (centres unmarked) [Compound 111, 9-(1-((6-Chloro-2-(1-methyl-1H-1,2,4-triazol-3-yl)pyridin-3-yl)amino)ethyl)-3-(1-hydroxyethyl)-4,7-dimethylimidazo[1,5-a]quinazolin-5(4H)-one] | < 1000 |
| Cc1cc(C(C)Nc2ccc(Cl)nc2-c2ncn(C)n2)c2c(c1)c(=O)n(C)c1c(-c3cccnc3C)ncn21 (centres unmarked) [Compound 113, 9-(1-((6-chloro-2-(1-methyl-1H-1,2,4-triazol-3-yl)pyridin-3-yl)amino)ethyl)-4,7-dimethyl-3-(2-methylpyridin-3-yl)imidazo[1,5-a]quinazolin-5(4H)-one] | < 1000 |
| CNC(=O)c1cc(-c2ncn3c4c(C(C)Nc5ccc(Cl)nc5-c5cnn(C)c5)cc(C)cc4c(=O)n(C)c23)ccn1 (centres unmarked) [Compound 118, 4-(9-(1-((6-chloro-2-(1-methyl-1H-pyrazol-4-yl)pyridin-3-yl)amino)ethyl)-4,7-dimethyl-5-oxo-4,5-dihydroimidazo[1,5-a]quinazolin-3-yl)-N-methylpicolinamide] | < 1000 |
| Cc1cc(C(C)Nc2ccc(Cl)nc2-c2ncn(C)n2)c2c(c1)c(=O)n(C)c1c(C(=O)N(C)C)ncn21 (centres unmarked) [Compound 119, 9-(1-((6-Chloro-2-(1-methyl-1H-1,2,4-triazol-3-yl)pyridin-3-yl)amino)ethyl)-N,N,4,7-tetramethyl-5-oxo-4,5-dihydroimidazo[1,5-a]quinazoline-3-carboxamide] | < 1000 |
| Cc1cc(C(C)Nc2ccc(Cl)nc2-c2cnn(C)c2)c2c(c1)c(=O)n(C)c1c(C(=O)N(C)C)ncn21 (centres unmarked) [Compound 120, 9-(1-((6-Chloro-2-(1-methyl-1H-pyrazol-4-yl)pyridin-3-yl)amino)ethyl)-N,N,4,7-tetramethyl-5-oxo-4,5-dihydroimidazo[1,5-a]quinazoline-3-carboxamide] | < 1000 |
| Cc1cc(C(C)Nc2ccc(Cl)nc2-c2ncn(C)n2)c2c(c1)c(=O)n(CC(F)F)c1c(C(=O)N(C)C)ncn21 (centres unmarked) [Compound 123, 9-(1-((6-chloro-2-(1-methyl-1H-1,2,4-triazol-3-yl)pyridin-3-yl)amino)ethyl)-4-(2,2-difluoroethyl)-N,N,7-trimethyl-5-oxo-4,5-dihydroimidazo[1,5-a]quinazoline-3-carboxamide] | < 1000 |
| Cc1cc(C(C)Nc2ccc(Cl)nc2-c2c[nH]nc2C)c2c(c1)c(=O)n(C)c1c(C(=O)N(C)C)ncn21 (centres unmarked) [Compound 124, 9-(1-((6-Chloro-2-(3-methyl-1H-pyrazol-4-yl)pyridin-3-yl)amino)ethyl)-N,N,4,7-tetramethyl-5-oxo-4,5-dihydroimidazo[1,5-a]quinazoline-3-carboxamide] | < 1000 |
| Cc1cc(C(C)Nc2ccc(Cl)nc2-c2ccc(C#N)cc2)c2c(c1)c(=O)n(C)c1c(C(=O)N(C)C)ncn21 (centres unmarked) [Compound 126, 9-(1-((6-chloro-2-(4-cyanophenyl)pyridin-3-yl)amino)ethyl)-N,N,4,7-tetramethyl-5-oxo-4,5-dihydroimidazo[1,5-a]quinazoline-3-carboxamide] | < 1000 |
| Cc1cc(C(C)Nc2ccc(Cl)nc2N2CCOCC2)c2c(c1)c(=O)n(C)c1c(C(=O)N(C)C)ncn21 (centres unmarked) [Compound 127, 9-(1-((6-chloro-2-morpholinopyridin-3-yl)amino)ethyl)-N,N,4,7-tetramethyl-5-oxo-4,5-dihydroimidazo[1,5-a]quinazoline-3-carboxamide] | < 1000 |
| Cc1cc(C(C)Nc2ccc(Cl)nc2-c2ncn(C)n2)c2c(c1)c(=O)n(C)c1c(C3CCN(C)CC3)ncn21 (centres unmarked) [Compound 131, 9-(1-((6-Chloro-2-(1-methyl-1H-1,2,4-triazol-3-yl)pyridin-3-yl)amino)ethyl)-4,7-dimethyl-3-(1-methylpiperidin-4-yl) imidazo[1,5-a]quinazolin-5(4H)-one] | < 1000 |
| CC(=O)N1CCC(c2ncn3c4c(C(C)Nc5ccc(Cl)nc5-c5ncn(C)n5)cc(C)cc4c(=O)n(C)c23)CC1 (centres unmarked) [Compound 132, 3-(1-Acetylpiperidin-4-yl)-9-(1-((6-chloro-2-(1-methyl-1H-1,2,4-triazol-3-yl)pyridin-3-yl)amino)ethyl)-4,7-dimethylimidazo[1,5-a]quinazolin-5(4H)-one] | < 1000 |

The remaining lines, values ahead:

| IC50 [nM] | SMILES |
| --- | --- |
| < 1000 | Cc1cc(C(C)Nc2ccc(Cl)nc2-c2cnn(C)c2)c2c(c1)c(=O)n(C)c1c2cnn1CC1CCN(C(=O)N(C)C)CC1 (centres unmarked) [Compound 108, 4-((9-(1-((6-chloro-2-(1-methyl-1H-pyrazol-4-yl)pyridin-3-yl)amino)ethyl)-4,7-dimethyl-5-oxo-4,5-dihydro-3H-pyrazolo[3,4-c]isoquinolin-3-yl)methyl)-N,N-dimethylpiperidine-1-carboxamide] |
| < 1000 | Cc1cc(C(C)Nc2ccc(Cl)nc2-c2ncn(C)n2)c2c(c1)c(=O)n(C)c1c(-c3cccnc3)ncn21 (centres unmarked) [Compound 112, 9-(1-((6-Chloro-2-(1-methyl-1H-1,2,4-triazol-3-yl)pyridin-3-yl)amino)ethyl)-4,7-dimethyl-3-(pyridin-3-yl) imidazo[1,5-a]quinazolin-5(4H)-one] |
| < 1000 | Cc1cc(C(C)Nc2ccc(Cl)nc2-c2ncn(C)n2)c2c(c1)c(=O)n(C)c1c(-c3cncnc3)ncn21 (centres unmarked) [Compound 114, 9-(1-((6-chloro-2-(1-methyl-1H-1,2,4-triazol-3-yl)pyridin-3-yl)amino)ethyl)-4,7-dimethyl-3-(pyrimidin-5-yl)imidazo[1,5-a]quinazolin-5(4H)-one] |
| < 1000 | Cc1cc(C(C)Nc2ccc(Cl)nc2-c2ncn(C)n2)c2c(c1)c(=O)n(C)c1c(-c3ccnc(C)c3)ncn21 (centres unmarked) [Compound 115, 9-(1-((6-chloro-2-(1-methyl-1H-1,2,4-triazol-3-yl)pyridin-3-yl)amino)ethyl)-4,7-dimethyl-3-(2-methylpyridin-4-yl)imidazo[1,5-a]quinazolin-5(4H)-one] |
| < 1000 | Cc1cc(C(C)Nc2ccc(Cl)nc2-c2cnn(C)c2)c2c(c1)c(=O)n(C)c1c(-c3cccnc3C)ncn21 (centres unmarked) [Compound 116, 9-(1-((6-Chloro-2-(1-methyl-1H-pyrazol-4-yl)pyridin-3-yl)amino)ethyl)-4,7-dimethyl-3-(2-methylpyridin-3-yl) imidazo[1,5-a]quinazolin-5(4H)-one] |
| < 1000 | Cc1cc(C(C)Nc2ccc(Cl)nc2-c2cnn(C)c2)c2c(c1)c(=O)n(C)c1c(-c3cncnc3)ncn21 (centres unmarked) [Compound 117, 9-(1-((6-chloro-2-(1-methyl-1H-pyrazol-4-yl)pyridin-3-yl)amino)ethyl)-4,7-dimethyl-3-(pyrimidin-5-yl)imidazo[1,5-a]quinazolin-5(4H)-one] |
| < 1000 | Cc1cc(C(C)Nc2ccc(Cl)nc2-c2cnn(C)c2)c2c(c1)c(=O)n(C)c1c(C(=O)N3CCC3)ncn21 (centres unmarked) [Compound 121, 3-(azetidine-1-carbonyl)-9-(1-((6-chloro-2-(1-methyl-1H-pyrazol-4-yl)pyridin-3-yl)amino)ethyl)-4,7-dimethylimidazo[1,5-a]quinazolin-5(4H)-one] |
| < 1000 | Cc1cc(C(C)Nc2ccc(Cl)nc2-c2cnn(C)c2)c2c(c1)c(=O)n(C)c1c(C(=O)N3CC(O)C3)ncn21 (centres unmarked) [Compound 122, 9-(1-((6-chloro-2-(1-methyl-1H-pyrazol-4-yl)pyridin-3-yl)amino)ethyl)-3-(3-hydroxyazetidine-1-carbonyl)-4,7-dimethylimidazo[1,5-a]quinazolin-5(4H)-one] |
| < 1000 | Cc1cc(C(C)Nc2ccc(Cl)nc2-c2ccc(C#N)cc2F)c2c(c1)c(=O)n(C)c1c(C(=O)N(C)C)ncn21 (centres unmarked) [Compound 125, 9-(1-((6-chloro-2-(4-cyano-2-fluorophenyl)pyridin-3-yl)amino)ethyl)-N,N,4,7-tetramethyl-5-oxo-4,5-dihydroimidazo[1,5-a]quinazoline-3-carboxamide] |
| < 1000 | Cc1cc(C(C)Nc2ccc(F)cc2-c2cnn(C)c2)c2c(c1)c(=O)n(C)c1c(C(=O)N(C)C)ncn21 (centres unmarked) [Compound 128, 9-(1-((4-fluoro-2-(1-methyl-1H-pyrazol-4-yl)phenyl)amino)ethyl)-N,N,4,7-tetramethyl-5-oxo-4,5-dihydroimidazo[1,5-a]quinazoline-3-carboxamide] |
| < 1000 | Cc1cc(C(C)Nc2ccc(Cl)nc2-c2cnn(C)c2C)c2c(c1)c(=O)n(C)c1c(C(=O)N(C)C)ncn21 (centres unmarked) [Compound 129, 9-(1-((6-chloro-2-(1,5-dimethyl-1H-pyrazol-4-yl)pyridin-3-yl)amino)ethyl)-N,N,4,7-tetramethyl-5-oxo-4,5-dihydroimidazo[1,5-a]quinazoline-3-carboxamide] |
| < 1000 | Cc1cc(C(C)Nc2ccc(Cl)nc2-c2cn(C)nc2C)c2c(c1)c(=O)n(C)c1c(C(=O)N(C)C)ncn21 (centres unmarked) [Compound 130, 9-(1-((6-chloro-2-(1,3-dimethyl-1H-pyrazol-4-yl)pyridin-3-yl)amino)ethyl)-N,N,4,7-tetramethyl-5-oxo-4,5-dihydroimidazo[1,5-a]quinazoline-3-carboxamide] |
| < 1000 | CCOC(=O)N1CCC(c2ncn3c4c(C(C)Nc5ccc(Cl)nc5-c5ncn(C)n5)cc(C)cc4c(=O)n(C)c23)CC1 (centres unmarked) [Compound 133, ethyl 4-(9-(1-((6-chloro-2-(1-methyl-1H-1,2,4-triazol-3-yl)pyridin-3-yl)amino)ethyl)-4,7-dimethyl-5-oxo-4,5-dihydroimidazo[1,5-a]quinazolin-3-yl)piperidine-1-carboxylate] |
